Results reported in US20250339359A1, “PEPTIDE HAVING ACTIVITY OF IMPROVING STATE OF SKIN, AND USE THEREOF” (CAREGEN CO., LTD., priority 2021, published 2025).

Experiments:
sirtuin-1 (SIRT-1) = test: Expression of SIRT-1 in HaCaT cells (RT-PCR); assay type: cell-based, human; details: 50 µM or 100 µM peptide, 24 hours, FIG. 4, FIG. 5A
Description: (§1) In this example, the aim was to confirm the effect of the peptides according to an example on skin barrier defense, by evaluating the expression levels of sirtuin-1 (SIRT-1) or aquaporin-3 (AQP3).
(§2) Specifically, HaCaT cells were seeded in a 6-well plate at a density of 3×10^5 cells/well and cultured for 24 hours. The cells were then washed once with serum-free DMEM media, and the culture medium was replaced with serum-free DMEM media. Thereafter, 50 µM or 100 µM of the peptide consisting of the amino acid sequence of SEQ ID NO: 1 was dispensed into the medium, and cultured in a CO2 incubator at 37° C. for 24 hours. The culture was then washed twice with PBS, and RNA was isolated from the culture using easy blue (iNtRON, Korea). Using the RT kit (Enzynomics, Korea), 1 μg of the isolated RNA was reverse transcribed to synthesize the respective cDNA. Polymerase chain reaction was then performed using the cDNAs and primers sirtuin-1 and aquaporin-3. Meanwhile, the untreated group was used as the control group, and the group to which EGF was added (EGF) was used as the positive control group, the nucleotide sequences of the primers used in this example are shown in Table 3 below.

NIH3T3 cells [1] = test: Survival rate after ultraviolet-induced apoptosis (SRB), NIH3T3; assay type: cell-based, mouse; details: 6 J/cm2 ultraviolet rays, 50 µM or 100 µM peptide, 72 hours, FIG. 6A
Description: (§3) In this example, the aim was to confirm the effect of the peptide according to an example on the inhibition of apoptosis or cell recovery of skin cells induced by ultraviolet rays, by evaluating the change in survival rate of skin cells whose apoptosis was induced by ultraviolet irradiation.
(§4) Specifically, NIH3T3 cells or HaCaT cells were seeded in a 96-well plate at a density of 1×10^4 cells/well and cultured for 24 hours. The cells were then washed once with serum-free DMEM media, the culture medium was replaced with serum-free DMEM media, and 50 µM or 100 µM of the peptide consisting of the amino acid sequence of SEQ ID NO: 1 was dispensed to the culture medium. The culture medium dispensed with the peptide was cultured in a CO2 incubator at 37° C. for 1 hour, transferred to an e-tube, mixed with 100 ul of PBS, and dispensed into a well plate. Afterwards, using a UV irradiator (VILBER LOURMAT, France), 6 J/cm2 ultraviolet rays were irradiated to NIH3T3 cells, and 15 m J/cm2 ultraviolet rays were irradiated to HaCaT cells. The PBS in the well plate was then removed, 900 μL of the culture medium in which the peptides were dispensed was added, and the plate was cultured in a CO2 incubator at 37° C. for 72 hours. […] The dried culture was then dissolved in 20 mM Tris buffer solution and the absorbance at 560 nm was measured using a microplate reader (Molecular Devices, USA). […]

HaCaT cells [2] = test: Proliferation of skin cells (SRB staining), HaCaT; assay type: cell-based, human; details: 50 µM or 100 µM peptide, 72 hours, serum-free DMEM, FIG. 1B
Description: (§5) In this example, the aim was to confirm the effect of a peptide according to an example on proliferation of skin cells, by evaluating changes in survival rate of NIH3T3 cells, which are mouse fibroblasts, or HaCaT cells, which are human keratinocytes.
(§6) Specifically, NIH3T3 cells or HaCaT cells were seeded in a 96-well plate at a density of 5×10^3 cells/well and cultured for 24 hours. The cells were then washed once with serum-free DMEM media, and the culture medium was replaced with serum-free DMEM media. Then, 50 µM or 100 µM of the peptide consisting of the amino acid sequence of SEQ ID NO: 1 was dispensed into the medium, and cultured in a CO2 incubator at 37° C. for 72 hours. The culture was then washed twice with PBS and treated with 4% paraformaldehyde (PFA) solution for 15 minutes to fix the cultured cells. The culture was then washed twice with distilled water, treated with SRB solution for 1 hour to stain the cells, washed with 1% acetic acid solution, and dried. The dried culture was then dissolved in 20 mM Tris buffer solution and the absorbance at 560 nm was measured using a microplate reader (Molecular Devices, USA). In this example, the untreated group was used as the control group, and the group to which insulin-like growth factor was added (IGF) was used as the positive control group.

fibronectin = test: Expression of fibronectin in NIH3T3 cells (RT-PCR); assay type: cell-based, mouse; details: 50 µM or 100 µM peptide, 24 hours, FIG. 2, FIG. 3B
Description: (§7) In this example, the aim was to confirm the effect of the peptide according to an example on improving endogenous skin aging, including improvement of wrinkles and enhancement of elasticity, etc., by evaluating the expression levels of collagen type 1 (Col1a1), fibronectin, or elastin, which are known components of the dermis.
(§8) Specifically, NIH3T3 cells were seeded in a 6-well plate at a density of 3×10^5 cells/well and cultured for 24 hours. The cells were then washed once with serum-free DMEM media, and the culture medium was replaced with serum-free DMEM media. Thereafter, 50 µM or 100 µM of the peptide consisting of the amino acid sequence of SEQ ID NO: 1 was dispensed into the medium, and cultured in a CO2 incubator at 37° C. for 24 hours. The culture was then washed twice with PBS, and RNA was isolated from the culture using easy blue (iNtRON, Korea). Using an RT kit (Enzynomics, Korea), 1 μg of the isolated RNA was reverse transcribed to synthesize the respective cDNA. Polymerase chain reaction (PCR) was then performed using the cDNAs and primers Col1a1, fibronectin, and elastin. Meanwhile, the untreated group was used as the control group, and the group to which TGF-β1 was added (TGF-β1) was used as the positive control group, the nucleotide sequences of the primers used in this example are shown in Table 2 below.

NIH3T3 cells [3] = test: Proliferation of skin cells (SRB staining), NIH3T3; assay type: cell-based, mouse; details: 50 µM or 100 µM peptide, 72 hours, serum-free DMEM, FIG. 1A
Description: as §5, §6

elastin = test: Expression of elastin in NIH3T3 cells (RT-PCR); assay type: cell-based, mouse; details: 50 µM or 100 µM peptide, 24 hours, FIG. 2, FIG. 3C
Description: as §7, §8

HaCaT cells [4] = test: Survival rate after ultraviolet-induced apoptosis (SRB), HaCaT; assay type: cell-based, human; details: 15 m J/cm2 ultraviolet rays, 50 µM or 100 µM peptide, 72 hours, FIG. 6B
Description: as §3, §4

aquaporin-3 (AQP3) = test: Expression of AQP3 in HaCaT cells (RT-PCR); assay type: cell-based, human; details: 50 µM or 100 µM peptide, 24 hours, FIG. 4, FIG. 5B
Description: as §1, §2

NIH3T3 cells [5] = test: Reactive oxygen species level after ultraviolet irradiation (DCF-DA, FACS), NIH3T3; assay type: cell-based, mouse; details: 6 J/cm2 ultraviolet rays, 50 µM or 100 µM peptide, 24 hours, FIG. 7A
Description: (§9) In this example, the aim was to confirm the effect of the peptide according to an embodiment on the antioxidant effect of skin cells induced by ultraviolet rays, by evaluating the level of reactive oxygen species in skin cells increased by ultraviolet irradiation.
as §4, with “6-well” for “96-well”, “5×10^5” for “1×10^4”, “24” for “72”, “After washing” for “The dried culture was then dissolved in 20 mM Tris buffer solution and”, “centrifuged cells with PBS, FL1 fluorescence values were” for “absorbance at 560 nm was”, “through flow cytometry (FACS, BD,” for “using a microplate reader (Molecular Devices,”

HaCaT cells [6] = test: Reactive oxygen species level after ultraviolet irradiation (DCF-DA, FACS), HaCaT; assay type: cell-based, human; details: 15 m J/cm2 ultraviolet rays, 50 µM or 100 µM peptide, 24 hours, FIG. 7B
Description: as §9
as §4, with “6-well” for “96-well”, “5×10^5” for “1×10^4”, “24” for “72”, “After washing” for “The dried culture was then dissolved in 20 mM Tris buffer solution and”, “centrifuged cells with PBS, FL1 fluorescence values were” for “absorbance at 560 nm was”, “through flow cytometry (FACS, BD,” for “using a microplate reader (Molecular Devices,”

collagen type 1 (Col1a1) = test: Expression of Col1a1 in NIH3T3 cells (RT-PCR); assay type: cell-based, mouse; details: 50 µM or 100 µM peptide, 24 hours, FIG. 2, FIG. 3A
Description: as §7, §8

EALKYWYEN (Peptide 1) [SEQ ID NO: 1]
expression of SIRT-1 (sirtuin-1 (SIRT-1)): increased | cell survival rate of fibroblasts reduced by ultraviolet irradiation (NIH3T3 cells [1]): restored | proliferation of keratinocytes (HaCaT cells [2]): promoted | expression of fibronectin (fibronectin): increased | proliferation of fibroblasts (NIH3T3 cells [3]): promoted | expression of elastin (elastin): increased | cell survival rate of keratinocytes reduced by ultraviolet irradiation (HaCaT cells [4]): restored | expression of AQP3 (aquaporin-3 (AQP3)): increased | level of reactive oxygen species in fibroblasts increased by ultraviolet irradiation (NIH3T3 cells [5]): reduced | level of reactive oxygen species in keratinocytes increased by ultraviolet irradiation (HaCaT cells [6]): reduced | expression of Col1a1 (collagen type 1 (Col1a1)): increased
